Data: ChEMBL document CHEMBL3046639, “Syntheses of tetrahydronaphthalenes. Part II” (Tetrahedron, 1994)
The source made the active and inactive calls. No rule for the calls is given here.

test: Pre-emergence herbicidal activity against narrowleaf weed at 0.5 lb/acre; assay type: functional

**Q.** Which Activity does the source give for COc1cc2c(cc1C(C)=O)C(C)(C)CCC2 here?
**A.** inactive

**Q.** With CCN(CC)c1c([N+](=O)[O-])cc2c(c1[N+](=O)[O-])CCCC2(C)C as the molecule, how does the Activity read?
**A.** inactive

**Q.** With Cc1cc2c(c(C)c1C(=O)C(Br)(Br)Br)CCCC2(C)C as the molecule, how does the Activity read?
**A.** inactive

**Q.** With CC1(C)CCCc2c([N+](=O)[O-])cc([N+](=O)[O-])c(F)c21 as the molecule, how does the Activity read?
**A.** inactive

**Q.** For CCCC1(CCC)CCCc2c1cc([N+](=O)[O-])c(F)c2[N+](=O)[O-], which Activity is on record?
**A.** inactive

**Q.** For CC(=O)c1c(F)cc2c(c1F)CCCC2(C)C, which Activity is on record?
**A.** inactive

**Q.** For CCNc1c([N+](=O)[O-])cc2c(c1[N+](=O)[O-])CCCC2(C)C, which Activity is on record?
**A.** inactive

**Q.** For COc1c([N+](=O)[O-])cc([N+](=O)[O-])c2c1C(C)(C)CCC2, which Activity is on record?
**A.** inactive

**Q.** For COc1cc(OC)c2c(c1)C(C)(C)CCC2, which Activity is on record?
**A.** inactive

**Q.** Which Activity does the source give for CCC(CC)Nc1c([N+](=O)[O-])cc2c(c1[N+](=O)[O-])CCCC2(C)C(C)C (configuration not stated) here?
**A.** inactive

**Q.** For CCC(CC)Nc1c([N+](=O)[O-])cc2c(c1[N+](=O)[O-])CCCC2C (configuration not stated), which Activity is on record?
**A.** inactive

**Q.** For CC(C)C1(C)CCCc2c1cc([N+](=O)[O-])c(F)c2[N+](=O)[O-] (configuration not stated), which Activity is on record?
**A.** inactive

**Q.** For CNc1c([N+](=O)[O-])cc2c(c1[N+](=O)[O-])CCCC2(C)C, which Activity is on record?
**A.** inactive

**Q.** With COc1c([N+](=O)[O-])cc2c(c1[N+](=O)[O-])CCCC2(C)C(C)C (configuration not stated) as the molecule, how does the Activity read?
**A.** inactive

**Q.** For CCCC1(CCC)CCCc2c1cc([N+](=O)[O-])c(N(C)C)c2[N+](=O)[O-], which Activity is on record?
**A.** inactive

**Q.** For CCCCOC(=O)c1c(C)cc2c(c1C)CCCC2(C)C, which Activity is on record?
**A.** inactive

**Q.** Which Activity does the source give for COC(=O)c1ccc(OC)c2c1CCCC2(C)C here?
**A.** inactive

**Q.** With COc1c([N+](=O)[O-])cc2c(c1[N+](=O)[O-])CCCC2(C)C as the molecule, how does the Activity read?
**A.** inactive

**Q.** For CN(C)c1c([N+](=O)[O-])cc2c(c1[N+](=O)[O-])CCCC21CCCCC1, which Activity is on record?
**A.** inactive

**Q.** Which Activity does the source give for CCOC(=O)c1c(C)cc2c(c1C)CCCC2(C)C here?
**A.** inactive

**Q.** For CCCN(CCC)c1c([N+](=O)[O-])cc2c(c1[N+](=O)[O-])CCCC2(C)C, which Activity is on record?
**A.** inactive

**Q.** With CC1CCCc2cc(F)ccc21 (configuration not stated) as the molecule, how does the Activity read?
**A.** inactive

**Q.** Which Activity does the source give for COC(=O)c1cc2c(cc1OC)CCCC2(C)C here?
**A.** inactive

**Q.** With CCCC1(CCC)CCCc2cc(F)ccc21 as the molecule, how does the Activity read?
**A.** inactive

**Q.** With CCC(CC)Nc1c([N+](=O)[O-])cc2c(c1[N+](=O)[O-])CCCC21CCCCC1 as the molecule, how does the Activity read?
**A.** inactive

**Q.** Which Activity does the source give for COc1ccc(C(C)=O)c2c1C(C)(C)CCC2 here?
**A.** inactive

**Q.** With CCCC1(CCC)CCCc2cc(N(C)C)c([N+](=O)[O-])cc21 as the molecule, how does the Activity read?
**A.** inactive

**Q.** For COc1cc2c(cc1C(=O)O)C(C)(C)CCC2, which Activity is on record?
**A.** inactive

**Q.** For CCSc1c([N+](=O)[O-])cc2c(c1[N+](=O)[O-])CCCC2(C)C, which Activity is on record?
**A.** inactive

**Q.** For CCCC1(CCC)CCCc2c1cc([N+](=O)[O-])c(NC(CC)CC)c2[N+](=O)[O-], which Activity is on record?
**A.** inactive

**Q.** With CC(C)C1(C)CCCc2cc(F)ccc21 (configuration not stated) as the molecule, how does the Activity read?
**A.** inactive

**Q.** Which Activity does the source give for CC1(C)CCCc2c1cc([N+](=O)[O-])c(F)c2[N+](=O)[O-] here?
**A.** inactive

**Q.** Which Activity does the source give for CC(=O)c1c(C)cc2c(c1C)CCCC2(C)C here?
**A.** inactive

**Q.** Which Activity does the source give for Cc1cc(C)c2c(c1)C(C)(C)CCC2 here?
**A.** inactive

**Q.** Which Activity does the source give for CN(C)c1c([N+](=O)[O-])cc2c(c1[N+](=O)[O-])CCCC2(C)C here?
**A.** inactive

**Q.** Which Activity does the source give for Cc1cc2c(c(C)c1C(=O)N(C)C)CCCC2(C)C here?
**A.** inactive

**Q.** With Cc1cc2c(c(C)c1C(=O)O)CCCC2(C)C as the molecule, how does the Activity read?
**A.** inactive

**Q.** Which Activity does the source give for CCS(=O)(=O)c1c([N+](=O)[O-])cc2c(c1[N+](=O)[O-])CCCC2(C)C here?
**A.** inactive

**Q.** For CCC(CC)Nc1c([N+](=O)[O-])cc2c(c1[N+](=O)[O-])CCCC2(C)C, which Activity is on record?
**A.** Active

**Q.** Which Activity does the source give for CN(C)c1c([N+](=O)[O-])cc([N+](=O)[O-])c2c1C(C)(C)CCC2 here?
**A.** inactive

**Q.** With O=[N+]([O-])c1cc2c(c([N+](=O)[O-])c1F)CCCC21CCCCC1 as the molecule, how does the Activity read?
**A.** inactive

**Q.** With Fc1ccc2c(c1)CCCC21CCCCC1 as the molecule, how does the Activity read?
**A.** inactive

**Q.** Which Activity does the source give for CC(C)c1cc(C(C)C)c2c(c1)C(C)(C)CCC2 here?
**A.** inactive

**Q.** Which Activity does the source give for CC1CCCc2c1cc([N+](=O)[O-])c(F)c2[N+](=O)[O-] (configuration not stated) here?
**A.** inactive

**Q.** With COC(=O)c1c(C)cc2c(c1C)CCCC2(C)C as the molecule, how does the Activity read?
**A.** Active

**Q.** For CCC(=O)c1c(C)cc2c(c1C)CCCC2(C)C, which Activity is on record?
**A.** inactive

**Q.** Which Activity does the source give for COc1ccc(C(=O)O)c2c1C(C)(C)CCC2 here?
**A.** inactive

**Q.** Which Activity does the source give for COc1c2c(cc(F)c1C(C)=O)C(C)(C)CCC2 here?
**A.** inactive

**Q.** For CN(C)c1cc2c(cc1[N+](=O)[O-])C(C)(C)CCC2, which Activity is on record?
**A.** inactive

**Q.** Which Activity does the source give for CC1(C)CCCc2c(F)cc(F)cc21 here?
**A.** inactive

**Q.** With CC(C)C1(C)CCCc2c1cc([N+](=O)[O-])c(N(C)C)c2[N+](=O)[O-] (configuration not stated) as the molecule, how does the Activity read?
**A.** inactive

**Q.** Which Activity does the source give for CC1(C)CCCc2cc(F)c([N+](=O)[O-])cc21 here?
**A.** inactive
